One experiment deals with T1, hsst3 (Homo sapiens, UniProt P32745).
T1 construct: expressed in transfected cells
The experiment is described as follows: Somatostatin receptor radioligand binding assay, hsst3. The protocol: (§1) Specificity and selectivity of the somatostatin analogues used to synthesize the somatostatin-dopamine chimers were determined by a radioligand binding assay on CHO-K1 cells stably transfected with each of the SSTR subtypes, as follows. Somatostatin analogs are also described in U.S. Patent Application Publication No. 02210006790. The complete coding sequences of genomic fragments of the SSTR 1 (e.g., Genbank accession No. M81829), SSTR 2 (e.g., Genbank accession No. M81830), SSTR 3 (e.g., Genbank accession No. L07062), and SSTR 4 (e.g., Genbank accession No. AL049651) genes and a cDNA clone for SSTR 5 (e.g., Genbank accession No. D16827) was subcloned into the mammalian expression vector pCMV (Life Technologies, Milano, Italy). Other SSTR sequences are known to the skilled artisan. Clonal cell lines stably expressing SSTR's 1-5 were obtained by transfection into CHO-K1 cells (ATCC, Manassas, Va., USA) using the calcium phosphate co-precipitation method (Davis L, et al., 1994 In: Basic methods in Molecular Biology, 2nd edition, Appleton & Lange, Norwalk, Conn., USA: 611-646). The plasmid pRSV-neo (ATCC) was included as a selectable marker. Clonal cell lines were selected in RPMI 1640 media containing 0.5 mg/mL of G418 (Life Technologies, Milano, Italy), ring cloned, and expanded into culture.
(§2) Membranes for in vitro receptor binding assays were obtained by homogenizing the CHO-K1 cells expressing the SSTR's subtypes in ice-cold 50 mM Tris-HCl and centrifuging twice at 39,000 g (10 min), with an intermediate resuspension in fresh buffer. The final pellets were resuspended in 10 mM Tris-HCl for assay.
(§3) For the SSTR 1, 3, 4, and 5 assays, aliquots of the membrane preparations were incubated 90 minutes at 25° C. with 0.05 nM [^125I-Tyr11]SS-14 in 50 mM HEPES (pH 7.4) containing 10 mg/mL BSA, 5 mM MgCl2, 200 KIU/mL Trasylol, 0.02 mg/mL bacitracin, and 0.02 mg/mL phenylmethylsuphonyl fluoride. The final assay volume was 0.3 mL.
(§4) For the SSTR 2 assay, 0.05 nM [^125I]MK-678 was employed as the radioligand and the incubation time was 90 minutes at 25° C. The incubations were terminated by rapid filtration through GF/C glass microfiber filters (Whatman Co.) (pre-soaked in 0.3% polyethylenimine) using a BRANDEL filtration manifold. Each tube and filter was washed three times with 5 mL aliquots of ice-cold buffer. Specific binding was defined as the total radioligand bound minus that bound in the presence of 1000 nM SS-14 for SSTR 1, 3, 4, and 5, or 1000 nM MK-678 for SSTR2.
(§5) Using the discussed assays, the inhibition constants (Ki) for the five human somatostatin receptors (hSSTR1-hSSTR5) and the dopamine-2 receptor (hUTII and hDA2) were measured for the exemplified somatostatin-dopamine conjugates, as follows: […]

The target of another experiment is T2, hsst5 (Homo sapiens, UniProt P35346).
T2 construct: expressed in transfected cells
The experiment is described as follows: Somatostatin receptor radioligand binding assay, hsst5. Conditions: CHO-K1 membranes, [125I-Tyr11]SS-14. The protocol: as §1, §2, §3, §4

Another experiment addresses T3, hUTII (Homo sapiens, UniProt Q9UKP6).
T3 sequence (Q9UKP6 1-389): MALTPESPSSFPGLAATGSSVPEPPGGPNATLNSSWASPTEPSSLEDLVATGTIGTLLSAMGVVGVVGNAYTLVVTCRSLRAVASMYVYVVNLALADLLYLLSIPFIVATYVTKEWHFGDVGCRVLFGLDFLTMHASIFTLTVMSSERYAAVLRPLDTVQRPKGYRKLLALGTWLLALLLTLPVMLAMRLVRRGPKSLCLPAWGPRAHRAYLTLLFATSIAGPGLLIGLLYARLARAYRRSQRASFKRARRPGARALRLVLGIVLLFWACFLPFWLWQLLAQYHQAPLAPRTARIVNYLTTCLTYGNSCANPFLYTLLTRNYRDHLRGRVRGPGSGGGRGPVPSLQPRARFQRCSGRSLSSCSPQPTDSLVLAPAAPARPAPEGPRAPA
The experiment is described as follows: hUTII inhibition constant. It is filed as binding. The protocol: as §5

The target in another experiment is hDA2. The experiment is described as follows: Dopamine-2 receptor radioligand binding assay. Further details: species or system human. Conditions: [3H]spiperone. The method, then: Specificity and selectivity for the dopamine-2 receptor of the dopamine analogues used to synthesize the somatostatin-dopamine chimers may be determined by a radioligand binding assay as follows.
Crude membranes were prepared by homogenization of frozen rat corpus striatum (Zivic Laboratories, Pittsburgh, Pa., USA) in 20 mL of ice-cold 50 mM Tris-HCl with a Brinkman Polytron cell disrupter (setting 6, 15 sec). Buffer was added to obtain a final volume of 40 mL, and the homogenate was centrifuged in a Sorval SS-34 rotor at 39,000 g for 10 minutes at 0-4° C. The resulting supernatant was decanted and discarded. The pellet was rehomogenized in ice-cold buffer, pre-incubated at 37° C. for 10 min, diluted, and centrifuged as before. The final pellet was resuspended in buffer and held on ice for the receptor binding assay.
For assay, aliquots of the washed membrane preparations and test compounds were incubated for 15 minutes (37° C.) with 0.25 nM [^3HI]spiperone (16.5 Ci.mmol, New England Nuclear, Boston, Mass., USA) in 50 mM Tris HCl, 120 mM NaCl, 5 mM KCl, 2 mM CaCl2, 1 mM MgCl2. The final assay volume was 1.0 mL. The incubations were terminated by rapid filtration through GF/B glass fibre filters using a Brandel filtration manifold. Each tube and filter was then washed three times with 5-mL aliquots of ice-cold buffer. Specific binding was defined as the total radioligand bound minus that bound in the presence of 1000 nM (+) butaclamol.
as §5

The next experiment addresses T4, hsst2 (Homo sapiens, UniProt P30874).
T4 construct: expressed in transfected cells
The experiment is described as follows: Somatostatin receptor radioligand binding assay, hsst2. Conditions: CHO-K1 membranes, [125I]MK-678. The protocol:
as §1, §2, §4

The values that follow come from US20110065632A1, “PHARMACEUTICAL COMPOSITIONS OF SOMATOSTATIN-DOPAMINE CONJUGATES” (priority 2008, published 2011).

Like-named read-outs stand apart in the source and are kept apart here. Bridge positions count the residues as written; N and C are the ends. Square brackets hold non-standard residues; d marks the D form. Peptide text beside a SMILES is read from it. * marks the point of attachment. X2 = CN1C[C@H](CSCC(=O)*)C[C@@H]2c3cccc4[nH]cc(c34)C[C@H]21; Abu = CC[C@H](N)C(=O)O

T4 sequence (P30874 whole entry): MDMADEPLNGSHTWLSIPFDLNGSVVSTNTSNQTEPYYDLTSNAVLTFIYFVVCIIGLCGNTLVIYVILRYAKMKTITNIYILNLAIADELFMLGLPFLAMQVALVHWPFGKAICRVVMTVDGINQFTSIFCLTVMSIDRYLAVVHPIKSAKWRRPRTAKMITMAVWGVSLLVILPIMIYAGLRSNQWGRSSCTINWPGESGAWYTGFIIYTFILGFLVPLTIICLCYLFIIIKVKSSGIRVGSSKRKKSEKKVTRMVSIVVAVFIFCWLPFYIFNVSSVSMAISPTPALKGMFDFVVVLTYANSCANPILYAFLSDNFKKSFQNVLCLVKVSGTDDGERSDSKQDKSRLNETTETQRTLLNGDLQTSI
T2 sequence (P35346 whole entry): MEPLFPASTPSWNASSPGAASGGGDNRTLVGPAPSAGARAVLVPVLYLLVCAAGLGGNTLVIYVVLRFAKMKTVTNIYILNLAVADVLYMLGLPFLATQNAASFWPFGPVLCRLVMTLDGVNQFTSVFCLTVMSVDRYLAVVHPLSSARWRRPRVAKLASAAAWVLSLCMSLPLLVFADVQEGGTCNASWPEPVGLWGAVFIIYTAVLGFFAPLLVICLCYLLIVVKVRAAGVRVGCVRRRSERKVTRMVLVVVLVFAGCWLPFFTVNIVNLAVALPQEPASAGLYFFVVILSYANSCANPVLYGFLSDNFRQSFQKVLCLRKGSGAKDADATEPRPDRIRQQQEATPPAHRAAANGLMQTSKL
T1 sequence (P32745 whole entry): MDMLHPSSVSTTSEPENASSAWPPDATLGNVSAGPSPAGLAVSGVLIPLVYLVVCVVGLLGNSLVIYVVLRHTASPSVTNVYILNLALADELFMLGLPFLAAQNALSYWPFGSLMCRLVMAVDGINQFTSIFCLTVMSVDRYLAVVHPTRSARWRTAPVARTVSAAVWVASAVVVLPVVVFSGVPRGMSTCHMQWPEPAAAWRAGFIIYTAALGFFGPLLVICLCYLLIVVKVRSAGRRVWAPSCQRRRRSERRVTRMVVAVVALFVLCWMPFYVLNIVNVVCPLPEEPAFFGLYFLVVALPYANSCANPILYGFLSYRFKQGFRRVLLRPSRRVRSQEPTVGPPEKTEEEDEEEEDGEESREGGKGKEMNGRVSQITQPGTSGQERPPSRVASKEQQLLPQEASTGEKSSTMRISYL

Take `CC[C@@H]1NC(=O)[C@H](CCCCN)NC(=O)[C@@H](Cc2c[nH]c3ccccc23)NC(=O)[C@H](Cc2ccc(O)cc2)NC(=O)[C@@H](NC(=O)[C@@H](Cc2ccc(O)cc2)NC(=O)[C@@H](Cc2ccc(O)cc2)NC(=O)[C@H](CCCCN)NC(=O)CSC[C@@H]2C[C@@H]3c4cccc5[nH]cc(c45)C[C@H]3N(C)C2)CSSC[C@@H](C(=O)N[C@H](C(N)=O)[C@@H](C)O)NC1=O` [Example 33] (X2-K[dY][dY]CY[dW]K[Abu]CT-NH2; disulfide 4-9): the Ki at hsst3 was determined as 65.1 nM; on hsst5 (hsst5 Ki), 9.82 nM; at hUTII (read-out: hUTII Ki), 37.7 nM; at hDA2 it was 206 nM; on hsst2 (read-out: hsst2 Ki), 0.2 nM.
`CC[C@@H]1NC(=O)[C@H](CCCCN)NC(=O)[C@@H](Cc2c[nH]c3ccccc23)NC(=O)[C@H](Cc2ccc(O)cc2)NC(=O)[C@@H](NC(=O)[C@@H](Cc2ccccc2)NC(=O)CN(C)C(=O)N[C@H]2C[C@@H]3c4cccc5[nH]cc(c45)C[C@H]3N(C)C2)CSSC[C@@H](C(=O)N[C@H](C(N)=O)[C@@H](C)O)NC1=O` [Example 20]: the Ki at hDA2 was determined as 95.2 nM.
Take `CC(C)[C@@H]1NC(=O)[C@H](CCCCN)NC(=O)[C@@H](Cc2c[nH]c3ccccc23)NC(=O)[C@H](Cc2ccc(O)c(I)c2)NC(=O)[C@@H](NC(=O)[C@@H](Cc2ccccc2)NC(=O)CN2CCN(CCNC(=O)CN3CCN(CCNC(=O)CSC[C@@H]4C[C@@H]5c6cccc7[nH]cc(c67)C[C@H]5N(C)C4)CC3)CC2)CSSC[C@@H](C(=O)N[C@H](C(N)=O)[C@@H](C)O)NC1=O` [Example 39]: the Ki is 136 nM at hsst3, 241 nM on hUTII (read-out: hUTII Ki), 310 nM on hDA2 and 0.42 nM on hsst2 (read-out: hsst2 Ki).
`CC(C)[C@@H]1NC(=O)[C@H](CCCCN)NC(=O)[C@@H](Cc2c[nH]c3ccccc23)NC(=O)[C@H](Cc2ccc(O)c(I)c2)NC(=O)[C@@H](NC(=O)[C@@H](Cc2ccccc2)NC(=O)COCCOCCNC(=O)CSC[C@@H]2C[C@@H]3c4cccc5[nH]cc(c45)C[C@H]3N(C)C2)CSSC[C@@H](C(=O)N[C@H](C(N)=O)[C@@H](C)O)NC1=O` [Example 41]: the Ki on hDA2 is 217 nM.
Consider `CC[C@@H]1NC(=O)[C@H](CCCCN)NC(=O)[C@@H](Cc2c[nH]c3ccccc23)NC(=O)[C@H](Cc2ccc(O)cc2)NC(=O)[C@@H](NC(=O)[C@@H](Cc2ccccc2)NC(=O)CN(C)C(=O)N[C@H]2C[C@@H]3c4cccc5[nH]cc(c45)C[C@H]3N(C)C2)CSSC[C@@H](C(=O)N[C@H](C(N)=O)[C@@H](C)O)NC1=O` [Example 27], for which the Ki on hsst3 stood at 140 nM; on hsst5 (hsst5 Ki), 22.8 nM; on hUTII (hUTII Ki), 1280 nM; on hsst2 (hsst2 Ki) it was 0.02 nM.
Consider `CCCN1C[C@H](CNC(=O)CCCC(=O)N[C@H](Cc2ccccc2)C(=O)N[C@H]2CSSC[C@@H](C(=O)N[C@H](C(N)=O)[C@@H](C)O)NC(=O)[C@H](CC)NC(=O)[C@H](CCCCN)NC(=O)[C@@H](Cc3c[nH]c4ccccc34)NC(=O)[C@H](Cc3ccc(O)cc3)NC2=O)C[C@@H]2c3cccc4[nH]cc(c34)C[C@H]21` [Example 29], for which the Ki on hDA2 is 226 nM; at hsst2 (read-out: hsst2 Ki) it was 0.14 nM.
Consider `CCCN1C[C@H](CSCC(=O)NCCCC[C@@H](NC(=O)CSC[C@@H]2C[C@@H]3c4cccc5[nH]cc(c45)C[C@H]3N(CCC)C2)C(=O)N[C@H](Cc2ccccc2)C(=O)N[C@H]2CSSC[C@@H](C(=O)N[C@H](C(N)=O)[C@@H](C)O)NC(=O)[C@H]([C@@H](C)O)NC(=O)[C@H](CCCCN)NC(=O)[C@@H](Cc3c[nH]c4ccccc34)NC(=O)[C@H](Cc3ccc(O)c(I)c3)NC2=O)C[C@@H]2c3cccc4[nH]cc(c34)C[C@H]21` [Example 15], for which the Ki is 6.29 nM at hsst5 (read-out: hsst5 Ki) and 18.3 nM on hDA2.
Turning to `CCCN1C[C@H](CSCC(=O)NCCN2CCN(CC(=O)NCCN3CCN(CC(=O)N[C@H](Cc4ccccc4)C(=O)N[C@H]4CSSC[C@@H](C(=O)N[C@H](C(N)=O)[C@@H](C)O)NC(=O)[C@H](C(C)C)NC(=O)[C@H](CCCCN)NC(=O)[C@@H](Cc5c[nH]c6ccccc56)NC(=O)[C@H](Cc5ccc(O)c(I)c5)NC4=O)CC3)CC2)C[C@@H]2c3cccc4[nH]cc(c34)C[C@H]21` [Example 37], the Ki on hsst3 (CHO-K1 membranes, [125I-Tyr11]SS-14, read-out: hsst3 Ki) is 374 nM; at hUTII (read-out: hUTII Ki), 421 nM; on hDA2, 126 nM; on hsst2 (read-out: hsst2 Ki), 1.26 nM.
